# Target: Human LDHA (Homo sapiens (Human), UniProt P00338)
# Experiment: human LDHA primary biochemical assay
# Settings: biochemical LDHA inhibitory activity, assay of Example 1; activity level classes defined in nM
# From the text: This example describes a human LDHA primary biochemical assay employed in the characterization of a compound of formula (I) in an embodiment of the invention.
# Test compounds were placed in a Greiner Bio-One (Monroe, N.C.) 1536-well black solid bottom assay plate. 200 millimolar (mM) Tris HCl, pH 7.4, 100 micromolar (μM) EDTA and 0.01% TWEEN-20™, final concentration, was used as the assay buffer. The LDHA reagent was 2 nanomolar (nM) Human LDHA (Meridian Life Science, Inc., Memphis, Tenn.), final concentration, in assay buffer. The substrate reagent was 0.06 mM NADH and 0.2 mM sodium pyruvate, final concentration, in assay buffer. The resazurin/diaphorase coupling reagent was 0.037 mM resazurin and 0.133 milligrams per milliliter (mg/mL) diaphorase, final concentration, in assay buffer. The inhibition of LDHA activity was measured by fluorescence emission.
row,Compound,IC50 [nM]
1,"CC(C)Cc1ccc(-c2cccc(-c3nn(-c4nc(C(=O)O)cs4)c(CCC4CC4)c3Cc3ccc(S(N)(=O)=O)c(F)c3)c2)cc1 [Compound 207, 2-(5-(2-cyclopropylethyl)-4-(3-fluoro-4-sulfamoylbenzyl)-3-(4′-isobutyl-[1,1′-biphenyl]-3-yl)-1H-pyrazol-1-yl)thiazole-4-carboxylic acid]",100 to 1000
2,"Cc1cc(-c2cc(-c3nn(-c4nc(C(=O)O)cs4)c(CC4CC4)c3Cc3ccc(S(N)(=O)=O)c(F)c3)ccc2F)ccc1C(C)C [Compound 213, 2-[5-(cyclopropylmethyl)-3-[4-fluoro-3-(4-isopropyl-3-methylphenyl)phenyl]-4-[(3-fluoro-4-sulfamoylphenyl)methyl]pyrazol-1-yl]-1,3-thiazole-4-carboxylic acid]",< 100
3,"CCc1cc(-c2cccc(-c3nn(-c4nc(C(=O)O)cs4)c(CC4CC4)c3Cc3ccc(S(N)(=O)=O)c(F)c3)c2)ccc1OC [Compound 182, 2-(5-(cyclopropylmethyl)-3-(3′-ethyl-4′-methoxy-[1,1′-biphenyl]-3-yl)-4-(3-fluoro-4-sulfamoylbenzyl)-1H-pyrazol-1-yl)thiazole-4-carboxylic acid]",100 to 1000
4,"CC(C)(C)c1ccc(-c2cc(-c3nn(-c4nc(C(=O)O)cs4)c(CC4CC4)c3Cc3ccc(S(N)(=O)=O)c(F)c3)ccc2F)cc1 [Compound 193, 2-(3-(4′-(tert-butyl)-6-fluoro-[1,1′-biphenyl]-3-yl)-5-(cyclopropylmethyl)-4-(3-fluoro-4-sulfamoylbenzyl)-1H-pyrazol-1-yl)thiazole-4-carboxylic acid]",100 to 1000
5,"CN(C)c1cccc(-c2cc(-c3nn(-c4nc(C(=O)O)cs4)c(CC4CC4)c3Cc3ccc(S(N)(=O)=O)c(F)c3)ccc2F)c1 [Compound 194, 2-(5-(cyclopropylmethyl)-3-(3′-(dimethylamino)-6-fluoro-[1,1′-biphenyl]-3-yl)-4-(3-fluoro-4-sulfamoylbenzyl)-1H-pyrazol-1-yl)thiazole-4-carboxylic acid]",< 100
6,"CC(C)c1ccc(-c2cccc(-c3nn(-c4nc(C(=O)O)cs4)c(CC4CC4)c3Cc3ccc(S(N)(=O)=O)c(F)c3)n2)cc1 [Compound 211, 2-[5-(cyclopropylmethyl)-4-[(3-fluoro-4-sulfamoylphenyl)methyl]-3-[6-(4-isopropylphenyl)pyridin-2-yl]pyrazol-1-yl]-1,3-thiazole-4-carboxylic acid]",100 to 1000
7,"Cc1ncc(-c2cccc(-c3nn(-c4nc(C(=O)O)cs4)c(CC4CC4)c3Cc3ccc(S(N)(=O)=O)c(F)c3)c2)cn1 [Compound 214, 2-[5-(cyclopropylmethyl)-4-[(3-fluoro-4-sulfamoylphenyl)methyl]-3-[3-(2-methylpyrimidin-5-yl)phenyl]pyrazol-1-yl]-1,3-thiazole-4-carboxylic acid]",< 100
8,"CC(C)Cc1ccc(-c2cccc(-c3nn(-c4nc(C(=O)O)cs4)c(CC4CC4)c3Cc3ccc(S(N)(=O)=O)c(F)c3)c2)cc1 [Compound 226, 2-(5-(cyclopropylmethyl)-4-(3-fluoro-4-sulfamoylbenzyl)-3-(4′-isobutyl-[1,1′-biphenyl]-3-yl)-1H-pyrazol-1-yl)thiazole-4-carboxylic acid]",100 to 1000
9,"CCc1cc(-c2cc(-c3nn(-c4nc(C(=O)O)cs4)c(CC4CC4)c3Cc3ccc(S(N)(=O)=O)c(F)c3)ccc2F)ccc1OC [Compound 186, 2-(5-(cyclopropylmethyl)-3-(3′-ethyl-6-fluoro-4′-methoxy-[1,1′-biphenyl]-3-yl)-4-(3-fluoro-4-sulfamoylbenzyl)-1H-pyrazol-1-yl)thiazole-4-carboxylic acid]",100 to 1000
10,"Cc1ccc(C#Cc2cc(-c3nn(-c4nc(C(=O)O)cs4)c(CC4CC4)c3Cc3ccc(S(N)(=O)=O)c(F)c3)ccc2F)s1 [Compound 249, 2-(5-(cyclopropylmethyl)-3-(4-fluoro-3-((5-methylthiophen-2-yl)ethynyl)phenyl)-4-(3-fluoro-4-sulfamoylbenzyl)-1H-pyrazol-1-yl)thiazole-4-carboxylic acid]",< 100
11,"Cc1cc(-c2cc(-c3nn(-c4nc(C(=O)O)cs4)c(CC4CC4)c3Cc3ccc(S(N)(=O)=O)c(F)c3)ccc2F)ccc1F [Compound 195, 2-(5-(cyclopropylmethyl)-3-(4′,6-difluoro-3′-methyl-[1,1′-biphenyl]-3-yl)-4-(3-fluoro-4-sulfamoylbenzyl)-1H-pyrazol-1-yl)thiazole-4-carboxylic acid]",< 100
12,"NS(=O)(=O)c1ccc(Cc2c(-c3cccc(-c4ccc(C(F)(F)C(F)(F)F)cc4)c3)nn(-c3nc(C(=O)O)cs3)c2CCC2CC2)cc1F [Compound 205, 2-(5-(2-cyclopropylethyl)-4-(3-fluoro-4-sulfamoylbenzyl)-3-(4′-(perfluoroethyl)-[1,1′-biphenyl]-3-yl)-1H-pyrazol-1-yl)thiazole-4-carboxylic acid]",100 to 1000
13,"Cc1ncc(-c2cc(-c3nn(-c4nc(C(=O)O)cs4)c(CC4CC4)c3Cc3ccc(S(N)(=O)=O)c(F)c3)ccc2F)[nH]1 [Compound 161, 2-(5-(cyclopropylmethyl)-3-(4-fluoro-3-(2-methyl-1H-imidazol-5-yl)phenyl)-4-(3-fluoro-4-sulfamoylbenzyl)-1H-pyrazol-1-yl)thiazole-4-carboxylic acid]",< 100

# More lines, now with the values ahead:
row,IC50 [nM],Compound
1,< 100,"Cc1ccc(-c2cccc(-c3nn(-c4nc(C(=O)O)cs4)c(CC4CC4)c3Cc3ccc(S(N)(=O)=O)c(F)c3)c2)nc1 [Compound 203, 2-(5-(cyclopropylmethyl)-4-(3-fluoro-4-sulfamoylbenzyl)-3-(3-(5-methylpyridin-2-yl)phenyl)-1H-pyrazol-1-yl)thiazole-4-carboxylic acid]"
2,100 to 1000,"NS(=O)(=O)c1ccc(Cc2c(-c3cccc(C#Cc4ccc(C5CC5)s4)c3)nn(-c3nc(C(=O)O)cs3)c2CCC2CC2)cc1F [Compound 244, 2-(5-(2-cyclopropylethyl)-3-(3-((5-cyclopropylthiophen-2-yl)ethynyl)phenyl)-4-(3-fluoro-4-sulfamoylbenzyl)-1H-pyrazol-1-yl)thiazole-4-carboxylic acid]"
3,< 100,"Cc1cc(C#Cc2cccc(-c3nn(-c4nc(C(=O)O)cs4)c(CC4CC4)c3Cc3ccc(S(N)(=O)=O)c(F)c3)c2)cs1 [Compound 240, 2-(5-(cyclopropylmethyl)-4-(3-fluoro-4-sulfamoylbenzyl)-3-(3-((5-methylthiophen-3-yl)ethynyl)phenyl)-1H-pyrazol-1-yl)thiazole-4-carboxylic acid]"
4,< 100,"Cc1cnc(C#Cc2cccc(-c3nn(-c4nc(C(=O)O)cs4)c(CCC4CC4)c3Cc3ccc(S(N)(=O)=O)c(F)c3)c2)s1 [Compound 234, 2-(5-(2-cyclopropylethyl)-4-(3-fluoro-4-sulfamoylbenzyl)-3-(3-((5-methylthiazol-2-yl)ethynyl)phenyl)-1H-pyrazol-1-yl)thiazole-4-carboxylic acid]"
5,100 to 1000,"Cc1ccc(C#Cc2cccc(-c3nn(-c4nc(C(=O)O)cs4)c(C(C)(C)C4CC4)c3Cc3ccc([S+](N)(=O)[O-])c(F)c3)c2)s1 [Compound 128, 2-(5-(2-cyclopropylpropan-2-yl)-4-(3-fluoro-4-sulfamoylbenzyl)-3-(3-((5-methylthiophen-2-yl)ethynyl)phenyl)-1H-pyrazol-1-yl) thiazole-4-carboxylic acid]"
